Data published in US20150361184A1, “METHODS OF MODULATING DLK STABILITY” (GENENTECH, INC., priority 2013, published 2015).
Peptide text beside a SMILES is read from it. * marks the point of attachment. Cbz = O=C(OCc1ccccc1)*

Columns and labels:
DLK [1] = experiment: Western blot for DLK in unstressed embryonic DRG neurons cultured with NGF, treated for three hours; assay type: cell-based, mouse; details: DRGs +NGF, 3 hours; OA 200 nM, MG132 30 μM
Protocol: (§1) Dorsal root ganglia were dissected from E12.5 to E13.5 mouse embryos, trypsinized (except in the case of explants), and cultured in F12 medium containing N3 supplement, 40 mM glucose, and 25 ng/mL NGF on chamber slides coated with poly-d-lysine and laminin (BioCoat, BD). The day after plating, 3 μM arabinofuranoside (AraC, Sigma) was added to the medium, removed two days later, and the medium was replaced with N3/F12/NGF without AraC. For NGF withdrawal experiments, after 4 to 5 days in vitro, medium was replaced with medium containing no NGF and 25 μg/mL anti-NGF antibody (Genentech) for between 1 and 3 hours.
DRG cultures were lysed by incubation on ice for 30 min. in buffer containing 50 mM Tris pH 7.5, 150 mM NaCl, 5 mM EDTA, and 0.1% Triton X-100. HEK 293T cells were lysed by incubation on ice for 30 min. in radioimmunoprecipitation assay (RIPA) buffer. Retina and nerve tissue samples were lysed in RIPA buffer using a TissueLyser (Qiagen) with a 3 mm tungsten carbide bead (Qiagen) for 6 min. Unless otherwise noted, all lysis solutions contained Complete protease inhibitor cocktail and PhosSTOP phosphatase inhibitor cocktail (Roche). Protein concentrations of 293T and retina lysates were determined by BCA assay (Pierce). Samples were loaded on NuPAGE 4-12% Bis-Tris gels (Invitrogen) and subjected to standard immunoblotting procedures. Except where noted, gels blotted for DLK were run in MOPS buffer (Invitrogen). Due to the large size of Phr1, samples blotted for Phr1 were run on 3-8% Tris-Acetate gels (Invitrogen). Blots were visualized with chemiluminescence and exposure to film. For relative protein expression and molecular weight quantifications, blots were also visualized on a Chemidoc (Bio-Rad). Quantifications were performed in ImageLab (Bio-Rad). Protein expression was standardized to a loading control (actin or tubulin). Molecular weight was standardized to Precision Plus Protein WesternC Standards (Bio-Rad).

murine DLK = experiment: SILAC mass spectrometry of DLK phosphorylation sites in 293T cells expressing Flag-tagged DLK; assay type: cell-based, mouse; details: WT DLK, okadaic acid 200 nM
Protocol: To identify functionally relevant phosphorylation sites on DLK, mass spectrometry in conjunction with stable isotope labeling by amino acids in cell culture (SILAC) was used. For these studies, 293T cells expressing FLAG-tagged DLK were cultured in SILAC media containing isotopically enriched (Heavy) versions of lysine (^13C6^15N2) and arginine (^13C6^15N4) or their unlabeled counterparts (Light). Four paired conditions (Light vs. Heavy) were established to dissect the effects of JNK and DLK activities on the overall abundance of DLK and the extent of DLK phosphorylation: 1) Wild-type (WT) DLK vs. DLK^S302A, 2) DLK^S302A vs. DLK^S302A co-expressed with a constitutively active JNK construct (Lei, K. et al. Molecular and cellular biology 22, 4929-4942 (2002)), 3) WT DLK vs. WT DLK with JNK inhibitor, and 4) WT DLK vs. WT DLK with okadaic acid (FIG. 5a).

DLK [2] = experiment: JNK3 siRNA knockdown in JNK2 knockout DRGs with NGF withdrawal, blot for DLK; assay type: cell-based, mouse; details: JNK2 KO embryonic DRGs, compared to control siRNA
Protocol: as §1
For siRNA experiments, dissociated DRGs were transfected using the Amaxa nucleofection system (Lonza). JNK3 siRNA (sense 5′-ACATCGTAGTCAAGTCTGATTT-3′ (SEQ ID NO:10), antisense 5′-ATCAGACTTGACTACGATGTTT (SEQ ID NO:11)) was synthesized at Genentech (Kim, M. J. et al. Neuron 56, 488-502 (2007)). Control siRNA was ON-TARGETplus Non-targeting siRNA #1 from Dharmacon.
DRG cultures were lysed by incubation on ice for 30 min. in buffer containing 50 mM Tris pH 7.5, 150 mM NaCl, 5 mM EDTA, and 0.1% Triton X-100. […] Protein concentrations of 293T and retina lysates were determined by BCA assay (Pierce). […] For relative protein expression and molecular weight quantifications, blots were also visualized on a Chemidoc (Bio-Rad). Quantifications were performed in ImageLab (Bio-Rad). […]

DLK [3] = experiment: DLK expression in stable cell line with dox-inducible DLK construct treated with JNK inhibitors; assay type: cell-based; details: inhibitors at 10 μM
Protocol: HEK 293T cells were lysed by incubation on ice for 30 min. in radioimmunoprecipitation assay (RIPA) buffer. […] Unless otherwise noted, all lysis solutions contained Complete protease inhibitor cocktail and PhosSTOP phosphatase inhibitor cocktail (Roche). Protein concentrations of 293T and retina lysates were determined by BCA assay (Pierce). Samples were loaded on NuPAGE 4-12% Bis-Tris gels (Invitrogen) and subjected to standard immunoblotting procedures. Except where noted, gels blotted for DLK were run in MOPS buffer (Invitrogen). […] Blots were visualized with chemiluminescence and exposure to film. For relative protein expression and molecular weight quantifications, blots were also visualized on a Chemidoc (Bio-Rad). Quantifications were performed in ImageLab (Bio-Rad). Protein expression was standardized to a loading control (actin or tubulin). Molecular weight was standardized to Precision Plus Protein WesternC Standards (Bio-Rad).
A stable cell line that expressed DLK in a doxicyclin-inducible fashion was used and cells were treated with two structurally distinct JNK inhibitors (FIG. 4c).

Row | Molecule | apparent molecular weight / phosphorylation of DLK (DLK [1]) | total levels of DLK protein (DLK [1]) | fold change in phosphorylation of T43, okadaic-acid-treated vs untreated cells expressing DLK (murine DLK) | increase in DLK quantity with NGF withdrawal (DLK [2]) | DLK expression (levels of DLK protein) (DLK [3])
1 | CC(C)C[C@@H](C=O)NC(=O)[C@H](CC(C)C)NC(=O)[C@H](CC(C)C)NC(=O)OCc1ccccc1 [MG132] (Cbz-Leu-Leu-Leu-aldehyde) | without an increase in DLK phosphorylation | produced an increase in DLK levels |  |  | 
2 | C=C1[C@@H](O)[C@@H]2O[C@]3(CC[C@H](/C=C/[C@@H](C)[C@@H]4CC(C)=C[C@@]5(O[C@H](C[C@@](C)(O)C(=O)O)CC[C@H]5O)O4)O3)CC[C@H]2O[C@@H]1[C@@H](O)C[C@H](C)[C@H]1O[C@@]2(CCCCO2)CC[C@H]1C [okadaic acid] | sufficient to increase both the apparent molecular weight and total levels of DLK | sufficient to increase both the apparent molecular weight and total levels of DLK | 7.78 fold |  | 
3 | JNK3 siRNA: siRNA, sense 5′-ACATCGTAGTCAAGTCTGATTT-3′ (SEQ ID NO:10), antisense SEQ ID NO:11, synthesized at Genentech (sense ACATCGTAGTCAAGTCTGATTT; antisense ATCAGACTTGACTACGATGTTT; listed as DNA, chemistry not given here) |  |  |  | attenuated the increase in DLK | 
4 | JNK Inhibitor VII (TAT-TI-JIP153-163) [JNK7] |  |  |  |  | reduces DLK expression
